How the values were obtained:
[1] = biological target: Wild-type RET kinase (Homo sapiens, UniProt P07949); assay: HTRF method for testing the inhibitory activity of compounds against RET; assay type: biochemical; settings: HTRF; read-out: Wild-type RET kinase
[2] = biological target: VEGFR2 kinase (Homo sapiens, UniProt P35968); assay: HTRF method for testing the inhibitory activity of compounds against VEGFR2; assay type: biochemical
[3] = biological target: T1, Ba/F3-KIF5B-RET cell (Homo sapiens, UniProt P07949); assay: CellTiter-Glo luminescence assay, inhibitory activity against Ba/F3-KIF5B-RET cell; assay type: cell-based; settings: 72 h, read-out: Ba/F3-KIF5B-RET cell activity
T1 construct: fused on or other part: P33176 (Kinesin-1 heavy chain)
T1 sequence (P07949 whole entry, stated change not applied, the tested form may be a part): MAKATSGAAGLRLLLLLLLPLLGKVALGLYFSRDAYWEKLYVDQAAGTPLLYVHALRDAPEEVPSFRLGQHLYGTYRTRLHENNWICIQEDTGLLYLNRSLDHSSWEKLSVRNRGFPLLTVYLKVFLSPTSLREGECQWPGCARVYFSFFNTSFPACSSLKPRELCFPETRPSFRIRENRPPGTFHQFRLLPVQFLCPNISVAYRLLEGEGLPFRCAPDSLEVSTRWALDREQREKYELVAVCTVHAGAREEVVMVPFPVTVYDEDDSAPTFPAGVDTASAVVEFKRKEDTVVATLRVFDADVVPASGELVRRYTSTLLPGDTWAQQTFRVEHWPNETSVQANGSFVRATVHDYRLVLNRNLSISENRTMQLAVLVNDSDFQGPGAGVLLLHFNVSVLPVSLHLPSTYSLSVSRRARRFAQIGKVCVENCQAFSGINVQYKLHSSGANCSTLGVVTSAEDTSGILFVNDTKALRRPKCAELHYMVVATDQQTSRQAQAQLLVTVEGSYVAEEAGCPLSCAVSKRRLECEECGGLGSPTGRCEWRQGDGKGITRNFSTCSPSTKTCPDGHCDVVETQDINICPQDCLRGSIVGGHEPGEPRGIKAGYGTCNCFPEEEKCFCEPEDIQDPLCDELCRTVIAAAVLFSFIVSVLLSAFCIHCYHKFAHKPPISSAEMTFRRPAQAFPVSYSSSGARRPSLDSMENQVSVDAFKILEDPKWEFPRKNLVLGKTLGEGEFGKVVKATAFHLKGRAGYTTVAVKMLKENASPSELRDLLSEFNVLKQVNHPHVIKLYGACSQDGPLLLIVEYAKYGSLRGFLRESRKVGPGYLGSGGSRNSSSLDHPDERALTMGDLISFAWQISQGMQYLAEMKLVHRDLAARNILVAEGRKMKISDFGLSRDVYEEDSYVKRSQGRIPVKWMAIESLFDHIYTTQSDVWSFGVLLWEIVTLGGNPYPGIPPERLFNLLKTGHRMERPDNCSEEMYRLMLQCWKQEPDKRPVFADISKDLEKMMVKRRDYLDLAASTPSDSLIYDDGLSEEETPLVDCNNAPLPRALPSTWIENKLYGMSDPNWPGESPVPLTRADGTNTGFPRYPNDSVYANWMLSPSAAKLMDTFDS
In short: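 Ba/F3 cells stably expressing human KIF5B-RET, 800 per well, treated 72 h at 37° C with 10 compound concentrations from 5000 to 0.254 nM (0.5% DMSO). Viability by CellTiter-Glo luminescence; IC50 from curve fitting.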

[4] = biological target: RET G810S kinase (Homo sapiens, UniProt P07949, G810S); assay: HTRF method for testing the inhibitory activity against RET G810S; assay type: biochemical; settings: for IC50: HTRF; for inhibitory activity against G810S (in words): mutant strain of RET kinase
Chain of RET G810S kinase (P07949 29-1114 G810S): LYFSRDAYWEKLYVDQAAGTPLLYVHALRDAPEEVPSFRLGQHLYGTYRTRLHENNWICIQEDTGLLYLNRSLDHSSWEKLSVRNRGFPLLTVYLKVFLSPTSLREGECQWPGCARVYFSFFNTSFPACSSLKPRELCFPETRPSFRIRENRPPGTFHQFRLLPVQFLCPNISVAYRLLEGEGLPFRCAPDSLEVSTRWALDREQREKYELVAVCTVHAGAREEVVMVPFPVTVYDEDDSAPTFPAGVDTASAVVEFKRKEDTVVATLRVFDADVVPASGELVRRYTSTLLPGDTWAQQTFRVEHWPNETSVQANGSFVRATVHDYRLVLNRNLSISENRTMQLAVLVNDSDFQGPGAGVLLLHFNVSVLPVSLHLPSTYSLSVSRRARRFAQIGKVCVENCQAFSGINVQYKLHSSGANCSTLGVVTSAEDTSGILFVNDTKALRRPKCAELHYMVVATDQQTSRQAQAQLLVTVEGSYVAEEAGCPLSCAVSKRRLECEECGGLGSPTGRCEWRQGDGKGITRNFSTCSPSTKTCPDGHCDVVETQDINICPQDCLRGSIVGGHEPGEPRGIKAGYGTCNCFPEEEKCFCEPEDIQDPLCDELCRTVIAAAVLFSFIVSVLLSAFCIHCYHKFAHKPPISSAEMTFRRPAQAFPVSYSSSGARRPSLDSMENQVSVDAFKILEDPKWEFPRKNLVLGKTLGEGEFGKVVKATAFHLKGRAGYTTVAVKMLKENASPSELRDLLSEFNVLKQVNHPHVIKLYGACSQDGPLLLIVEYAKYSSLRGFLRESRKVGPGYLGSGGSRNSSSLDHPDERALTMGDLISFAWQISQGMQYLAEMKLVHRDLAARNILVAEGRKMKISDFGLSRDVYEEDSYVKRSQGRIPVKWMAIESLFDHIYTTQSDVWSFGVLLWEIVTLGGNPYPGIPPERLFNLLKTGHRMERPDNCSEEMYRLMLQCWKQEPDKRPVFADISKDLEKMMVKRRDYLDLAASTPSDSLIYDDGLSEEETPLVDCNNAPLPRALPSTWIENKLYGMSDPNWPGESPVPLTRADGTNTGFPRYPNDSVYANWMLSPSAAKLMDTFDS

[5] = biological target: RET G810R kinase (Homo sapiens, UniProt P07949, G810R); assay: HTRF method for testing the inhibitory activity against RET G810R; assay type: biochemical; settings: for IC50: HTRF; for inhibitory activity against G810R (in words): mutant strain of RET kinase
Chain of RET G810R kinase (P07949 29-1114 G810R): as the sequence (P07949 29-1114 G810S) above, with S782R counted along it

[6] = biological target: T2, CCDC6-RET (Homo sapiens, UniProt P07949); assay: Inhibitory activity against RET gene fusion CCDC6-RET; assay type: biochemical; settings: read-out: median inhibitory activity (IC50) against CCDC6-RET
T2 construct: CCDC6 (fusion partner, N-terminal part); the other entry of the earlier key: CCDC6 (Q16204, Coiled-coil domain-containing protein 6)
T2 sequence (P07949 with tags, fused parts or gaps): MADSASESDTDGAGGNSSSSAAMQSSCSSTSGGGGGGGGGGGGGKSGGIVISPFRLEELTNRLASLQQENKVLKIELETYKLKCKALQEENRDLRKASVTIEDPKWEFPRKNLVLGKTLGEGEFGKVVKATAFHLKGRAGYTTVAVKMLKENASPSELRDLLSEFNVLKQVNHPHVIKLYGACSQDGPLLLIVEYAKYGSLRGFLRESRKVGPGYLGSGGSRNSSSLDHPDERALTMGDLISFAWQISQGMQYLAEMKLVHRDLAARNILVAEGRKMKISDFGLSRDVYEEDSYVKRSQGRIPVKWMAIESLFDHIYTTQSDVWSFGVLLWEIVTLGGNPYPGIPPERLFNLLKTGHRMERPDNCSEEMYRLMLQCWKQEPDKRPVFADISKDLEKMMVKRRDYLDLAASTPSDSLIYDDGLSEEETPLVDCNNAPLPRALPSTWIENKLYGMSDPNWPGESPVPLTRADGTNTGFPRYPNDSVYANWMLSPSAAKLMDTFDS

[7] = biological target: RET V804M (Homo sapiens, UniProt P07949, V804M); assay: Inhibitory activity against RET kinase mutant RET V804M; assay type: biochemical; settings: read-out: median inhibitory activity (IC50) against RET V804M
Chain of RET V804M (P07949 29-1114 V804M): as the sequence (P07949 29-1114 G810S) above, with V776M, S782G counted along it

[8] = biological target: RET M918T (Homo sapiens, UniProt P07949, M918T); assay: Inhibitory activity against RET kinase mutant RET M918T; assay type: biochemical; settings: read-out: median inhibitory activity (IC50) against RET M918T
Chain of RET M918T (P07949 29-1114 M918T): as the sequence (P07949 29-1114 G810S) above, with S782G, M890T counted along it

Chain of Wild-type RET kinase (P07949 29-1114): as the sequence (P07949 29-1114 G810S) above, with S782G counted along it
Chain of VEGFR2 kinase (P35968 20-1356): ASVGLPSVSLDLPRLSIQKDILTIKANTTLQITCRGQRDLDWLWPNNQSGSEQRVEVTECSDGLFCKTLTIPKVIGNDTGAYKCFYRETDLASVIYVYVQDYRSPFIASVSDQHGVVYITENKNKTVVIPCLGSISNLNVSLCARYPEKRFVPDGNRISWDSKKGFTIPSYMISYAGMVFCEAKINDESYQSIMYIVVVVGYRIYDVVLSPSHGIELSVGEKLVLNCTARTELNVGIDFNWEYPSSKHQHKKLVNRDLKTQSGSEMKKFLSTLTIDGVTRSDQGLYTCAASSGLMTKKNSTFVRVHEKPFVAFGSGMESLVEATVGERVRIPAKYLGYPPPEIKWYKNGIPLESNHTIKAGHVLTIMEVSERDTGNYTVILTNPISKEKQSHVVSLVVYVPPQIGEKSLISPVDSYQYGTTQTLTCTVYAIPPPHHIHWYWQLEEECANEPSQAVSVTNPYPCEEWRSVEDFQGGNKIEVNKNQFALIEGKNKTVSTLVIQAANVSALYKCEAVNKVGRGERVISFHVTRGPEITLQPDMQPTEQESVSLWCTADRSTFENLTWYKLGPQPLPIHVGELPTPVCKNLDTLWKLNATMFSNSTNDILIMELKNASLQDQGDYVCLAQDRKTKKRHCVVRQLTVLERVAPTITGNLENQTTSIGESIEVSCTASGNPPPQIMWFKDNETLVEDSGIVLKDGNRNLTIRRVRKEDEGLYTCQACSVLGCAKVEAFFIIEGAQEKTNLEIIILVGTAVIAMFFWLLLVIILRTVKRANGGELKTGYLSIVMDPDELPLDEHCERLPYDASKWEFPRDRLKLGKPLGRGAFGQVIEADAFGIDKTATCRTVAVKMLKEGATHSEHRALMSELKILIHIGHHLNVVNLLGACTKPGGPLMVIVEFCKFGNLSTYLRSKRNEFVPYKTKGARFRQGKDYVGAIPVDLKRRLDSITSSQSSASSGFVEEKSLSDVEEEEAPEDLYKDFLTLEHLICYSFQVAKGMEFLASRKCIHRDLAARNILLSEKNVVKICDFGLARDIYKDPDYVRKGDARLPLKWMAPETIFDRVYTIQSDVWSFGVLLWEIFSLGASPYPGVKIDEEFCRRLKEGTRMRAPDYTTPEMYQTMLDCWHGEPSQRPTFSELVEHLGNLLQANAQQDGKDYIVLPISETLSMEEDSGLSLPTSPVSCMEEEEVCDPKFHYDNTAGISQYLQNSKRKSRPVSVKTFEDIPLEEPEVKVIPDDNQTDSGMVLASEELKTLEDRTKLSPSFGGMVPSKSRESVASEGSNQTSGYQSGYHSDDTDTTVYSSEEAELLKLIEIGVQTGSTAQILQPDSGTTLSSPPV

SMILES | IC50 [1] [nM] | IC50 [2] [nM] | GI50 [3] [nM] | IC50 [4] [nM] | inhibitory activity against G810S (in words) [4] | IC50 [5] [nM] | inhibitory activity against G810R (in words) [5] | IC50 [6] [nM] | IC50 [7] [nM] | IC50 [8] [nM]
CCNc1cc(-c2cnc(N3CC4CC(C3)N4Cc3ccc(OC)nc3)cn2)c2c(C#N)cnn2c1 [Compound 29, 6-(ethylamino)-4-(5-(-6-((6-methoxypyridin-3-yl)methyl)-3,6-diazabicyclo[3.1.1]heptane-3-yl)pyrazin-2-yl)pyrazolo[1,5-a]pyridine-3-carbonitrile] | 0.181 | 56 | 4.43 | 1.93 | good inhibitory activity | 23.8 | good inhibitory activity | < 5 | < 5 | < 5
CCNc1cc(-c2ccc(N3CC4CC(C3)N4Cc3ccc(-n4cc(F)cn4)nc3)nc2)c2c(C#N)cnn2c1 [Compound 52, 6-(ethylamino)-4-(6-(6-((6-(4-fluoro-1H-pyrazol-1-yl)pyridin-3-yl)methyl)-3,6-diazabicyclo[3.1.1]heptan-3-yl)pyridin-3-yl)pyrazolo[1,5-a]pyridine-3-carbonitrile] | 2.02 | 39 | 142 |  |  |  |  | < 5 | < 5 | < 5
COc1ccc(CN2C3CC2CN(c2ccc(-c4cc(NC(C)C)cn5ncc(C#N)c45)cn2)C3)cn1 [Compound 69, 6-(isopropylamino)-4-(6-(6-((6-methoxypyridin-3-yl)methyl)-3,6-diazabicyclo[3.1.1]heptyl-3-yl)pyridin-3-yl)pyrazolo[1,5-a]pyridine-3-carbonitrile] | 0.47 | 42.2 | 4.14 | 27 | good inhibitory activity | 42.4 | good inhibitory activity |  |  | 
COc1ccc(CN2C3CC2CN(c2ccc(-c4cc(N5CCOCC5)cn5ncc(C#N)c45)cn2)C3)cn1 [Compound 70, 4-(6-(6-((6-methoxypyridin-3-yl)methyl)-3,6-diazabicyclo[3.1.1]heptyl-3-yl)pyridin-3-yl)-6-morpholinopyrazolo[1,5-a]pyridine-3-carbonitrile] | 0.24 | 57.5 | 1.97 | 10.4 | good inhibitory activity | 31.4 | good inhibitory activity |  |  | 
